Tested on: 422866-222-R5-J1-PDC complex spheroid viability
Test: Anticancer human tumor 422866-222-R5-J1-PDC patient-derived pancreatic adenocarcinoma cell line growth inhibition [POLQ]
Details: for IC50: curve of first compound; for viability, T/C: stronger effect = lower value
In short: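 Complex spheroid viability model combining PDC tumour cells with endothelial (HUVEC) and MSC stromal cells. Novobiocin, ART-558 or RP6685 were tested singly and in combination with standard and investigational anticancer drugs. Each was titrated in half-log steps from near clinical Cmax, or from 10 microM where Cmax was unknown.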

[1] = second compound 0.0316 µM, first compound 0.0316 µM
[2] = second compound 0.0316 µM, first compound 0.1 µM
[3] = second compound 0.0316 µM, first compound 0.316 µM
[4] = second compound 0.0316 µM, first compound 1 µM
[5] = second compound 0.0316 µM, first compound 3.16 µM
[6] = second compound 0.0316 µM, first compound 10 µM
[7] = second compound 0.1 µM, first compound 0.0316 µM
[8] = second compound 0.1 µM, first compound 0.1 µM
[9] = second compound 0.1 µM, first compound 0.316 µM
[10] = second compound 0.1 µM, first compound 1 µM
[11] = second compound 0.1 µM, first compound 3.16 µM
[12] = second compound 0.1 µM, first compound 10 µM
[13] = second compound 0.316 µM, first compound 0.0316 µM
[14] = second compound 0.316 µM, first compound 0.1 µM
[15] = second compound 0.316 µM, first compound 0.316 µM
[16] = second compound 0.316 µM, first compound 1 µM
[17] = second compound 0.316 µM, first compound 3.16 µM
[18] = second compound 0.316 µM, first compound 10 µM
[19] = second compound 1 µM, first compound 0.0316 µM
[20] = second compound 1 µM, first compound 0.1 µM
[21] = second compound 1 µM, first compound 0.316 µM
[22] = second compound 1 µM, first compound 1 µM
[23] = second compound 1 µM, first compound 3.16 µM
[24] = second compound 1 µM, first compound 10 µM
[25] = second compound 3.16 µM, first compound 0.0316 µM
[26] = second compound 3.16 µM, first compound 0.1 µM
[27] = second compound 3.16 µM, first compound 0.316 µM
[28] = second compound 3.16 µM, first compound 1 µM
[29] = second compound 3.16 µM, first compound 3.16 µM
[30] = second compound 3.16 µM, first compound 10 µM
[31] = second compound 10 µM, first compound 0.0316 µM
[32] = second compound 10 µM, first compound 0.1 µM
[33] = second compound 10 µM, first compound 0.316 µM
[34] = second compound 10 µM, first compound 1 µM
[35] = second compound 10 µM, first compound 3.16 µM
[36] = second compound 10 µM, first compound 10 µM
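Also: spheroids exposed to compounds for one week before readout.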
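For viability, T/C in this document: percent of DMSO vehicle wells luminescence so 100% = untreated viability.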

## CC1COCCN1c1cc(C2(O)CC3CCC(C2)O3)c2cnn(-c3ccn[nH]3)c2n1 (stereo not drawn) + Nc1ccc(C#CCN(C(=O)Cc2ncc(C(F)(F)F)cc2C(F)(F)F)c2ccc(F)cc2)nn1
Second compound 0.0316 µM
  IC50: > 10 µM
Second compound 0.1 µM
  IC50: < 0.0316 µM
Second compound 0.316 µM
  IC50: < 0.0316 µM
Second compound 1 µM
  IC50: > 10 µM
Second compound 3.16 µM
  IC50: 10 µM
Second compound 10 µM
  IC50: < 0.0316 µM
[1]
  viability, T/C: 72%
[2]
  viability, T/C: 39.4%
[3]
  viability, T/C: 40.7%
[4]
  viability, T/C: 74.5%
[5]
  viability, T/C: 73.5%
[6]
  viability, T/C: 61.1%
[7]
  viability, T/C: 58.2%
[8]
  viability, T/C: 39.4%
[9]
  viability, T/C: 48.5%
[10]
  viability, T/C: 71.6%
[11]
  viability, T/C: 83.6%
[12]
  viability, T/C: 63.8%
[13]
  viability, T/C: 61.3%
[14]
  viability, T/C: 37%
[15]
  viability, T/C: 42.2%
[16]
  viability, T/C: 74.8%
[17]
  viability, T/C: 73.8%
[18]
  viability, T/C: 59.9%
[19]
  viability, T/C: 64.3%
[20]
  viability, T/C: 39.5%
[21]
  viability, T/C: 37.3%
[22]
  viability, T/C: 71.4%
[23]
  viability, T/C: 65.5%
[24]
  viability, T/C: 57.9%
[25]
  viability, T/C: 97.4%
[26]
  viability, T/C: 38.7%
[27]
  viability, T/C: 36.9%
[28]
  viability, T/C: 77.2%
[29]
  viability, T/C: 63.2%
[30]
  viability, T/C: 69%
[31]
  viability, T/C: 60.7%
[32]
  viability, T/C: 41.5%
[33]
  viability, T/C: 47.1%
[34]
  viability, T/C: 83.8%
[35]
  viability, T/C: 65.3%
[36]
  viability, T/C: 63.4%

## C=CCn1c(=O)c2cnc(Nc3ccc(N4CCN(C)CC4)cc3)nc2n1-c1cccc(C(C)(C)O)n1 + Cc1cccc(N(C)C(=O)C2C(O)CCN2c2nc(C)cc(C(F)(F)F)c2C#N)c1
Second compound 0.0316 µM
  IC50: 0.298 µM
Second compound 0.1 µM
  IC50: 0.289 µM
Second compound 0.316 µM
  IC50: 0.299 µM
Second compound 1 µM
  IC50: 0.257 µM
Second compound 3.16 µM
  IC50: 0.423 µM
Second compound 10 µM
  IC50: 0.277 µM
Second compound 0.0316 µM, first compound 0.00316 µM
  viability, T/C: 107%
Second compound 0.0316 µM, first compound 0.01 µM
  viability, T/C: 96.1%
[1]
  viability, T/C: 110%
[2]
  viability, T/C: 89.1%
[3]
  viability, T/C: 48.4%
[4]
  viability, T/C: 33.3%
Second compound 0.1 µM, first compound 0.00316 µM
  viability, T/C: 93%
Second compound 0.1 µM, first compound 0.01 µM
  viability, T/C: 93.8%
[7]
  viability, T/C: 101%
[8]
  viability, T/C: 85.8%
[9]
  viability, T/C: 47.1%
[10]
  viability, T/C: 35.1%
Second compound 0.316 µM, first compound 0.00316 µM
  viability, T/C: 108%
Second compound 0.316 µM, first compound 0.01 µM
  viability, T/C: 97.3%
[13]
  viability, T/C: 105%
[14]
  viability, T/C: 97.1%
[15]
  viability, T/C: 47.5%
[16]
  viability, T/C: 31.3%
Second compound 1 µM, first compound 0.00316 µM
  viability, T/C: 110%
Second compound 1 µM, first compound 0.01 µM
  viability, T/C: 85.1%
[19]
  viability, T/C: 104%
[20]
  viability, T/C: 83.8%
[21]
  viability, T/C: 42.8%
[22]
  viability, T/C: 32.3%
Second compound 3.16 µM, first compound 0.00316 µM
  viability, T/C: 98.4%
Second compound 3.16 µM, first compound 0.01 µM
  viability, T/C: 87.2%
[25]
  viability, T/C: 91.6%
[26]
  viability, T/C: 100%
[27]
  viability, T/C: 54.8%
[28]
  viability, T/C: 35.7%
Second compound 10 µM, first compound 0.00316 µM
  viability, T/C: 104%
Second compound 10 µM, first compound 0.01 µM
  viability, T/C: 95.8%
[31]
  viability, T/C: 97.3%
[32]
  viability, T/C: 75.3%
[33]
  viability, T/C: 46.6%
[34]
  viability, T/C: 40.4%

## COc1cc2cc(C(=O)CCC(=O)O)sc2cc1OC + COC1C(OC(N)=O)C(O)C(Oc2ccc3c(O)c(NC(=O)c4ccc(O)c(CC=C(C)C)c4)c(=O)oc3c2C)OC1(C)C
Second compound 0.0316 µM
  IC50: > 10 µM
Second compound 0.1 µM
  IC50: > 10 µM
Second compound 0.316 µM
  IC50: > 10 µM
Second compound 1 µM
  IC50: > 10 µM
Second compound 3.16 µM
  IC50: > 10 µM
Second compound 10 µM
  IC50: > 10 µM
[1]
  viability, T/C: 102%
[2]
  viability, T/C: 104%
[3]
  viability, T/C: 87.3%
[4]
  viability, T/C: 114%
[5]
  viability, T/C: 94.2%
[6]
  viability, T/C: 106%
[7]
  viability, T/C: 114%
[8]
  viability, T/C: 95.8%
[9]
  viability, T/C: 93.8%
[10]
  viability, T/C: 105%
[11]
  viability, T/C: 88.1%
[12]
  viability, T/C: 102%
[13]
  viability, T/C: 98.8%
[14]
  viability, T/C: 95%
[15]
  viability, T/C: 110%
[16]
  viability, T/C: 93.4%
[17]
  viability, T/C: 93.8%
[18]
  viability, T/C: 106%
[19]
  viability, T/C: 104%
[20]
  viability, T/C: 96.8%
[21]
  viability, T/C: 94.4%
[22]
  viability, T/C: 102%
[23]
  viability, T/C: 92.7%
[24]
  viability, T/C: 115%
[25]
  viability, T/C: 99.1%
[26]
  viability, T/C: 102%
[27]
  viability, T/C: 107%
[28]
  viability, T/C: 103%
[29]
  viability, T/C: 92.5%
[30]
  viability, T/C: 134%
[31]
  viability, T/C: 97.2%
[32]
  viability, T/C: 104%
[33]
  viability, T/C: 105%
[34]
  viability, T/C: 99%
[35]
  viability, T/C: 94.8%
[36]
  viability, T/C: 122%

## CCc1cc2c(N3CCc4c(cc(Cn5ccnc5)cc4-c4cn(C)nc4C(F)(F)F)C3=O)ccnc2c(OC)n1 + COC1C(OC(N)=O)C(O)C(Oc2ccc3c(O)c(NC(=O)c4ccc(O)c(CC=C(C)C)c4)c(=O)oc3c2C)OC1(C)C
Second compound 0.0316 µM
  IC50: > 10 µM
Second compound 0.1 µM
  IC50: > 10 µM
Second compound 0.316 µM
  IC50: > 10 µM
Second compound 1 µM
  IC50: > 10 µM
Second compound 3.16 µM
  IC50: > 10 µM
Second compound 10 µM
  IC50: > 10 µM
[1]
  viability, T/C: 95.3%
[2]
  viability, T/C: 92.8%
[3]
  viability, T/C: 108%
[4]
  viability, T/C: 119%
[5]
  viability, T/C: 113%
[6]
  viability, T/C: 116%
[7]
  viability, T/C: 92.8%
[8]
  viability, T/C: 108%
[9]
  viability, T/C: 116%
[10]
  viability, T/C: 104%
[11]
  viability, T/C: 110%
[12]
  viability, T/C: 111%
[13]
  viability, T/C: 104%
[14]
  viability, T/C: 91%
[15]
  viability, T/C: 92.2%
[16]
  viability, T/C: 101%
[17]
  viability, T/C: 112%
[18]
  viability, T/C: 124%
[19]
  viability, T/C: 86.6%
[20]
  viability, T/C: 91.4%
[21]
  viability, T/C: 102%
[22]
  viability, T/C: 100%
[23]
  viability, T/C: 115%
[24]
  viability, T/C: 124%
[25]
  viability, T/C: 91.9%
[26]
  viability, T/C: 105%
[27]
  viability, T/C: 129%
[28]
  viability, T/C: 114%
[29]
  viability, T/C: 105%
[30]
  viability, T/C: 114%
[31]
  viability, T/C: 93%
[32]
  viability, T/C: 98.1%
[33]
  viability, T/C: 105%
[34]
  viability, T/C: 109%
[35]
  viability, T/C: 105%
[36]
  viability, T/C: 122%

Reference: PubChem BioAssay AID1963844 (Molecular Pharmacology Branch, DTP, NCI, 2024)
